Test systems include MDA-MB-435; HCT-15 colon; HL-60(TB) leukemia; IGROV1 ovarian; UACC-62 melanoma; NCI-H226 lung; SNB-19 CNS; LOX IMVI melanoma; RXF 393 renal; NCI-H23 lung; SK-MEL-28 melanoma; EKVX NSCLC; CCRF-CEM leukemia; HCC-2998 colon; SNB-75 CNS; OVCAR-4 ovarian; TK-10 renal; NCI-H460 lung; UACC-257 melanoma.
Holding throughout (assay): NCI-60 cell line screen, 48 h

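Five compound concentrations were applied to cells in 96-well plates for 48 hours; endpoints were derived by simple linear interpolation of the resulting dose-response curve. The concentration for full growth arrest is given as TGI.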 Some results are limits rather than exact numbers.

`CC(C)(Oc1ccc(Cl)cc1)C(=O)N(C(=O)N1CCCCC1)c1ccccc1`: the TGI with MDA-MB-435 was over 100 µM; in the assay on HCT-15 colon, 24.6 µM; in the assay on HL-60(TB) leukemia, 21 µM; in the assay on IGROV1 ovarian, 22.3 µM; in the assay on UACC-62 melanoma, 27.5 µM; with NCI-H226 lung, 51 µM. Also, the TGI in the assay on SNB-19 CNS was determined as 42.5 µM; in the assay with LOX IMVI melanoma, 26.6 µM; in the assay with RXF 393 renal, 33.3 µM; in the assay on NCI-H23 lung, 33.1 µM; in the assay on SK-MEL-28 melanoma, 44.6 µM; with EKVX NSCLC, 21.9 µM. Also, in the assay with CCRF-CEM leukemia, the TGI is over 100 µM.
With `C/C(N)=C/C(=O)c1[nH]c(C(=O)O)cc1C1CCN(Cc2ccccc2)C1=O` (stereo unspecified), the TGI with HCC-2998 colon is over 100 µM; in the assay with MDA-MB-435 it was over 100 µM; in the assay on SNB-75 CNS, 88.4 µM; in the assay with HCT-15 colon it was over 100 µM; with OVCAR-4 ovarian it was over 100 µM; with TK-10 renal, over 100 µM. The TGI was 94.1 µM in the assay on IGROV1 ovarian; 55.6 µM in the assay with UACC-62 melanoma; over 100 µM in the assay with NCI-H460 lung; over 100 µM with SNB-19 CNS; 45.2 µM in the assay with RXF 393 renal; 47.9 µM in the assay on NCI-H23 lung. The results for the TGI in the assay with UACC-257 melanoma, with SK-MEL-28 melanoma and in the assay on EKVX NSCLC were 78.5 µM, 72.5 µM and over 100 µM, respectively.
On to `CC(=O)c1cc2c(s1)C(=O)c1sccc1C2=O`, for which the TGI in the assay on HCC-2998 colon is 0.392 µM; in the assay on SNB-75 CNS, 0.0491 µM; with HCT-15 colon, 0.0534 µM; in the assay with OVCAR-4 ovarian, 0.195 µM; in the assay on TK-10 renal, 0.414 µM; in the assay with IGROV1 ovarian it was 0.337 µM. In addition, the TGI with UACC-62 melanoma turned out to be 0.0898 µM; in the assay on NCI-H226 lung it was 0.407 µM; in the assay on NCI-H460 lung, 0.211 µM; in the assay with SNB-19 CNS, 0.202 µM; in the assay on LOX IMVI melanoma it was 0.0249 µM; with RXF 393 renal, 0.0919 µM. The TGI in the assay with NCI-H23 lung was determined as 0.0378 µM; with UACC-257 melanoma it was 0.0289 µM; in the assay on EKVX NSCLC it was 0.475 µM; in the assay on CCRF-CEM leukemia, 0.0912 µM.
On to `CC(=O)OCCOCNC(=S)N/N=C/c1cc([N+](=O)[O-])ccc1O`, for which the TGI with HCC-2998 colon, in the assay with SNB-75 CNS, in the assay on HCT-15 colon, in the assay with OVCAR-4 ovarian, with HL-60(TB) leukemia and in the assay with TK-10 renal was over 100 µM throughout. For the same compound, the TGI with IGROV1 ovarian, with UACC-62 melanoma, with NCI-H226 lung, in the assay on NCI-H460 lung, in the assay with SNB-19 CNS and with LOX IMVI melanoma was over 100 µM throughout. The TGI with RXF 393 renal, in the assay on NCI-H23 lung, with UACC-257 melanoma, with SK-MEL-28 melanoma, with EKVX NSCLC and with CCRF-CEM leukemia was over 100 µM in each case.
With `c1cc2nnsc2s1`, the TGI in the assay on HCC-2998 colon, with SNB-75 CNS, with HCT-15 colon, in the assay with OVCAR-4 ovarian, in the assay with HL-60(TB) leukemia and in the assay with TK-10 renal was over 100 µM each time. Moreover, the TGI in the assay on IGROV1 ovarian, in the assay with UACC-62 melanoma, in the assay with NCI-H226 lung, with NCI-H460 lung, with SNB-19 CNS and in the assay with LOX IMVI melanoma was over 100 µM each time. Besides, the TGI in the assay on NCI-H23 lung, with UACC-257 melanoma, in the assay with SK-MEL-28 melanoma, in the assay with EKVX NSCLC and with CCRF-CEM leukemia was over 100 µM throughout.
Take `Cc1ccc(OCC2OC(n3cnc4nc(Nc5ccc(Cl)c(Cl)c5)nc(Cl)c43)CC2Oc2ccc(C)cc2)cc1` (stereo unspecified): the TGI with HCC-2998 colon, with MDA-MB-435, in the assay on SNB-75 CNS, in the assay with HCT-15 colon, in the assay with OVCAR-4 ovarian and in the assay with TK-10 renal was over 100 µM each time. The TGI in the assay on IGROV1 ovarian, in the assay with UACC-62 melanoma, in the assay with NCI-H226 lung, in the assay with NCI-H460 lung, in the assay with SNB-19 CNS and in the assay on RXF 393 renal was over 100 µM each time. For the same compound, the TGI in the assay on NCI-H23 lung, in the assay with UACC-257 melanoma, with SK-MEL-28 melanoma, with EKVX NSCLC and in the assay on CCRF-CEM leukemia was over 100 µM throughout.
Consider `COc1cc(CC2c3cc(OC)c(OC)cc3CCN2C)ccc1O` (stereo unspecified), for which the TGI in the assay on HCC-2998 colon, in the assay with SNB-75 CNS, in the assay with HCT-15 colon, with OVCAR-4 ovarian, with TK-10 renal and in the assay on NCI-H460 lung was over 100 µM in each case. The TGI with SNB-19 CNS, with NCI-H23 lung, in the assay with UACC-257 melanoma, in the assay with SK-MEL-28 melanoma, with EKVX NSCLC and with CCRF-CEM leukemia was over 100 µM in each case.
In the case of `CC(C)CCNC(=O)C(CC(C)C)NC(=O)[C@H]1O[C@@H]1C(=O)O` (stereo partly specified), the TGI in the assay with HCC-2998 colon, in the assay on MDA-MB-435, with SNB-75 CNS, with HCT-15 colon, in the assay with OVCAR-4 ovarian and with IGROV1 ovarian was over 100 µM in each case. Moreover, the TGI in the assay with UACC-62 melanoma, in the assay with NCI-H226 lung, in the assay with NCI-H460 lung, in the assay on SNB-19 CNS, with NCI-H23 lung and in the assay with UACC-257 melanoma was over 100 µM in each case. Besides, the TGI with SK-MEL-28 melanoma, in the assay with EKVX NSCLC and in the assay on CCRF-CEM leukemia was over 100 µM throughout.
For `COC1(C)C(=O)N2C1N(C(=O)OC(C)(C)C)CC2(C)C` (stereo unspecified), the TGI in the assay with HCC-2998 colon, in the assay with SNB-75 CNS, with HCT-15 colon, with OVCAR-4 ovarian, with HL-60(TB) leukemia and in the assay with TK-10 renal was over 100 µM each time. Moreover, the TGI in the assay with IGROV1 ovarian is over 100 µM; in the assay on UACC-62 melanoma, over 100 µM; in the assay on NCI-H226 lung, over 100 µM; with NCI-H460 lung it was over 100 µM; in the assay with SNB-19 CNS, over 100 µM; in the assay on LOX IMVI melanoma, 53.1 µM. For the same compound, the TGI in the assay on RXF 393 renal, in the assay with NCI-H23 lung, in the assay with UACC-257 melanoma, in the assay with SK-MEL-28 melanoma, in the assay on EKVX NSCLC and in the assay with CCRF-CEM leukemia was over 100 µM each time.

(Values after PubChem BioAssay (NCI).)
